This note sets out measurements from patent US11912701B2, “Protein kinase inhibitors for promoting liver regeneration or reducing or preventing hepatocyte death” (HEPAREGENIX GMBH, priority 2018, dated 2024).

What all share (assay type): biochemical
Assay [1] has as its target T1, MKK4 (Homo sapiens, UniProt P45985).
T1 construct: purchased ProQinase GmbH, Freiburg, Germany (33PanQinase Assay Service)
T1 sequence (P45985 1-399): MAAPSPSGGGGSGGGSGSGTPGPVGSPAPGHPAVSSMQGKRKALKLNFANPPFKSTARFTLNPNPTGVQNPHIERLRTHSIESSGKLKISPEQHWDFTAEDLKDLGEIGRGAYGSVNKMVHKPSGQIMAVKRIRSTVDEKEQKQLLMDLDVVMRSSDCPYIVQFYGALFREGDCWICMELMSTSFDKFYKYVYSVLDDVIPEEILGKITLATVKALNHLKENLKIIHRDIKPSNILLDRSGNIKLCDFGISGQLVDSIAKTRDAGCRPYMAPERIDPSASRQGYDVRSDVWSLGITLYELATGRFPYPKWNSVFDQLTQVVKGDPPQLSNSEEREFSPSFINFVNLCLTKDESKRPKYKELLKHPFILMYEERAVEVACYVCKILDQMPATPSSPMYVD
Put plainly: 33PanQinase enzyme assay, MKK4. Conditions: assay 'IC50'; for IC50: read-out: Potency MKK4 (IC50). As for the experimental part:
(§1) The kinase activities of the compounds of the invention were measured using the 33PanQinase® Assay Service provided by ProQinase GmbH, Freiburg, Germany. Details of the assay conditions are disclosed on the website of ProQinase (https://www.proginase.com/products-services-biochemical-assay-services/kinase-assays). In brief, all kinase assays were performed in 96-well FlashPlates™ from PerkinElmer (Boston, MA, USA) in a 50 μl reaction volume. The reaction cocktail was pipetted in four steps in the following order: • 20 μl of assay buffer (standard buffer) • 5 μl of ATP solution (in H2O) • 5 μl of test compound (in 10% DMSO) • 20 μl enzyme/subtrate mix
(§2) The reaction cocktails were incubated at 30° C. for 60 minutes. The reaction is stopped with 50 μl of 2% (v/v) H3PO4, plates were aspirated and washed two times with 200 μl 0.9% (w/v) NaCl. Incorporation of ^33Pi was determined with a microplate scintillation counter (Microbeta, Wallac).
(§3) All assays were performed with a BeckmanCoulter/SAGIAN™ Core System.
(§4) In case of single concentration assays, the potency of the test compound is expressed as % residual activity. […] The fitting method used was a least-squares fit.
Inhibition potency against MKK4 is categorized as follows:
Assay at single concentration (100 nM):

Assay [2] addresses T2, BRaf (Homo sapiens, UniProt P15056).
T2 construct: purchased ProQinase GmbH, Freiburg, Germany (33PanQinase Assay Service)
Put plainly: 33PanQinase enzyme assay, BRaf. Conditions: ratio IC50(BRaf)/IC50(MKK4). As to the method:
as §1, §2, §3, §4
(§5) Selectivity of test compounds against BRaf, JNK1 and MKK7, altogether denominated as off-targets was calculated by the ratio of IC50 (off-target)/IC50 (MKK4) and categorized as follows: […]

Assay [3] concerns the target JNK1 (Homo sapiens, UniProt P45983). Put plainly: 33PanQinase enzyme assay, JNK1. Set-up: purchased ProQinase GmbH, Freiburg, Germany (33PanQinase Assay Service). Conditions: ratio IC50(JNK1)/IC50(MKK4). As for the experimental part: as §1, §2, §3, §4, §5
The target in assay [4] is T3, MKK7 (Homo sapiens, UniProt O14733).
T3 sequence (O14733 1-419): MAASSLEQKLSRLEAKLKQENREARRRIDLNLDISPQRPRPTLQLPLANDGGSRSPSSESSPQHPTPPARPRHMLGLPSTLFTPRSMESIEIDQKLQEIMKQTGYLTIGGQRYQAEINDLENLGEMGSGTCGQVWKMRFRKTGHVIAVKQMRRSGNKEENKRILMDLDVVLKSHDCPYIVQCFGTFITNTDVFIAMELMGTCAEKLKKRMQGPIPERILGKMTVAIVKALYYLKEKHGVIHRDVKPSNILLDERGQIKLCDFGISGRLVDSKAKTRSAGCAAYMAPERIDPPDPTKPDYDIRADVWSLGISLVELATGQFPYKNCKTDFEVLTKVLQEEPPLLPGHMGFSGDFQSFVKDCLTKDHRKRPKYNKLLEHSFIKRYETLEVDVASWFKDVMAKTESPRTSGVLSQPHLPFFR
Put plainly: 33PanQinase enzyme assay, MKK7. Set-up: purchased ProQinase GmbH, Freiburg, Germany (33PanQinase Assay Service). To be noted: ratio IC50(MKK7)/IC50(MKK4). As to the method: as §1, §2, §3, §4, §5

T2 sequence (P15056 whole entry, species assumed): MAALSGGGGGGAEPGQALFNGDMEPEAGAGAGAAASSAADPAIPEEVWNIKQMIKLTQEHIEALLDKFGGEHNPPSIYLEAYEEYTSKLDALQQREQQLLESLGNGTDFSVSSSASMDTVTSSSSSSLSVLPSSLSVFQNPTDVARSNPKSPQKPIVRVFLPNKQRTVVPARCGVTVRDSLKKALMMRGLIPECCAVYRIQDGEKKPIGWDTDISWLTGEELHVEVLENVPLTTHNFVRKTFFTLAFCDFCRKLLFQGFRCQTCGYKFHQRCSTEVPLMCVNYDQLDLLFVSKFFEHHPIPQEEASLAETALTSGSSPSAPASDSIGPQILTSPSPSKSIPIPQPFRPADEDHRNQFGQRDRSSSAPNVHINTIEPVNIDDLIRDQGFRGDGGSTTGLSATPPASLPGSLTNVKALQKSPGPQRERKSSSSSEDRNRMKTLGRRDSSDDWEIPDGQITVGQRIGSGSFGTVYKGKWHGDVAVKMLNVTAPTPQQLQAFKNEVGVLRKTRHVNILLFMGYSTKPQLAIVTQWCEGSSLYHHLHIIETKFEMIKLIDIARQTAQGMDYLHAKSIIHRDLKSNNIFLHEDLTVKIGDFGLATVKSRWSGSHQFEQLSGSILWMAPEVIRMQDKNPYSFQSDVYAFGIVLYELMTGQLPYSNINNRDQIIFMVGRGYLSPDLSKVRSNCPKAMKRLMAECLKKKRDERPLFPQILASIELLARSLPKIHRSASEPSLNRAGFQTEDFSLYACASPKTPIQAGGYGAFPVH
Chain of JNK1 (P45983 whole entry): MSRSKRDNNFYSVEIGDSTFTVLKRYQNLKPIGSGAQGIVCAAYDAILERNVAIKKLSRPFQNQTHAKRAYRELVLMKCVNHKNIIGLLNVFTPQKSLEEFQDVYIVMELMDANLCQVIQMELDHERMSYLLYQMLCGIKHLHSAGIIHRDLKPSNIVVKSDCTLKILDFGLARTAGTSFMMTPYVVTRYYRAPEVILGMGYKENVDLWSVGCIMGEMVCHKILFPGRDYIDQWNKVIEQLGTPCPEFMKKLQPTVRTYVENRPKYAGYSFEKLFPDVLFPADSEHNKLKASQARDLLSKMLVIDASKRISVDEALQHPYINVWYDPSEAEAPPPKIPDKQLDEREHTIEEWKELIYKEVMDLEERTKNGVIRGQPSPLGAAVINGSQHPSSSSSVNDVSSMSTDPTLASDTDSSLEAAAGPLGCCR

Take `CCCS(=O)(=O)Nc1ccc(F)c(C(=O)c2c[nH]c3ncc(C(=O)NOCCO)cc23)c1F` [Example 94, 3-(2,6-difluoro-3-(propylsulfonamido)benzoyl)-N-(2-hydroxyethoxy)-1H-pyrrolo[2,3-b]pyridine-5-carboxamide]: the half-maximal inhibitory concentration (IC50) in assay [1] is less than 100 nM. Further, the “Selectivity Braf, IC50(off-target)/IC50(MKK4)” value (“Selectivity Braf” below) in assay [2] was “◯ (3 ≥ IC50(off-target)/IC50(MKK4))”. The “Selectivity JNK1, IC50(off-target)/IC50(MKK4)” value (“Selectivity JNK1” below) in assay [3] is “+ (10 ≥ IC50(off-target)/IC50(MKK4) > 3)”. For the same compound, the “Selectivity IVIKK7, IC50(off-target)/IC50(MKK4)” value (“Selectivity IVIKK7” below) in assay [4] is on record as “+++ (IC50(off-target)/IC50(MKK4) > 100)”.

As for `CCCS(=O)(=O)Nc1c(F)ccc(C(=O)c2c[nH]c3ncc(-c4cnc(C#N)nc4)cc23)c1F` [Example 189, N-(3-(5-(2-cyanopyrimidin-5-yl)-1H-pyrrolo[2,3-b]pyridine-3-carbonyl)-2,6-difluorophenyl)propane-1-sulfonamide], in assay [1], the IC50 fell in the range of 100 to 1000 nM. Also, the “Selectivity Braf” value in assay [2] is reported as “++ (100 ≥ IC50(off-target)/IC50(MKK4) > 10)”. Also, the “Selectivity JNK1” value in assay [3] is listed as “++ (100 ≥ IC50(off-target)/IC50(MKK4) > 10)”. Besides, the “Selectivity IVIKK7” value in assay [4] is given as “+++ (IC50(off-target)/IC50(MKK4) > 100)”.

As for `CCCS(=O)(=O)Nc1c(F)ccc(C(=O)c2c[nH]c3ncc(-c4cnc(N5CC[C@@H](O)C5)nc4)cc23)c1F` [Example 204, (R)-N-(2,6-difluoro-3-(5-(2-(3-hydroxypyrrolidin-1-yl)pyrimidin-5-yl)-1H-pyrrolo[2,3-b]pyridine-3-carbonyl)phenyl)propane-1-sulfonamide], the half-maximal inhibitory concentration (IC50) in assay [1] was in the range of 100 to 1000 nM. Further, the “Selectivity Braf” value in assay [2] was “++ (100 ≥ IC50(off-target)/IC50(MKK4) > 10)”. Besides, the “Selectivity JNK1” value in assay [3] is “+++ (IC50(off-target)/IC50(MKK4) > 100)”. Besides, the “Selectivity IVIKK7” value in assay [4] was “+++ (IC50(off-target)/IC50(MKK4) > 100)”.

Turning to `CCCS(=O)(=O)Nc1ccc(F)c(C(=O)c2c[nH]c3ncc(-c4ccc(S(=O)(=O)C(F)F)cc4)cc23)c1F` [Example 74, N-(3-(5-(4-((difluoromethyl)sulfonyl)phenyl)-1H-pyrrolo[2,3-b]pyridine-3-carbonyl)-2,4-difluorophenyl)propane-1-sulfonamide], in assay [1], the concentration for half-maximal inhibition (IC50) lay within 100 to 1000 nM. Further, in assay [2], the “Selectivity Braf” value is “◯ (3 ≥ IC50(off-target)/IC50(MKK4))”. In addition, in assay [3], the “Selectivity JNK1” value is recorded as “+ (10 ≥ IC50(off-target)/IC50(MKK4) > 3)”. For the same compound, the “Selectivity IVIKK7” value in assay [4] is “+++ (IC50(off-target)/IC50(MKK4) > 100)”.

Turning to `CCCS(=O)(=O)Nc1ccc(F)c(C(=O)c2c[nH]c3ncc(N4CC(C(=O)O)C4)cc23)c1F` [Example 137, 1-(3-(2,6-difluoro-3-(propylsulfonamido)benzoyl)-1H-pyrrolo[2,3-b]pyridin-5-yl)azetidine-3-carboxylic acid], in assay [1], the concentration for half-maximal inhibition (IC50) was 100 to 1000 nM. In addition, the “Selectivity Braf” value in assay [2] is recorded as “◯ (3 ≥ IC50(off-target)/IC50(MKK4))”. For the same compound, in assay [3], the “Selectivity JNK1” value is “+ (10 ≥ IC50(off-target)/IC50(MKK4) > 3)”. Moreover, the “Selectivity IVIKK7” value in assay [4] is given as “+++ (IC50(off-target)/IC50(MKK4) > 100)”.

For `CCCS(=O)(=O)Nc1c(F)ccc(C(=O)c2c[nH]c3ncc(-c4cnc(C)nc4Cl)cc23)c1F` [Example 186, N-(3-(5-(4-chloro-2-methylpyrimidin-5-yl)-1H-pyrrolo[2,3-b]pyridine-3-carbonyl)-2,6-difluorophenyl)propane-1-sulfonamide], in assay [1], the 50% inhibitory concentration (IC50) was less than 100 nM. Besides, in assay [2], the “Selectivity Braf” value was “+++ (IC50(off-target)/IC50(MKK4) > 100)”. In addition, the “Selectivity JNK1” value in assay [3] is “+++ (IC50(off-target)/IC50(MKK4) > 100)”. Besides, the “Selectivity IVIKK7” value in assay [4] is “+++ (IC50(off-target)/IC50(MKK4) > 100)”.

`CCCS(=O)(=O)Nc1c(F)ccc(C(=O)c2c[nH]c3ncc(-c4cnc(C5CC5)cc4C)cc23)c1F` [Example 167, N-(3-(5-(6-cyclopropyl-4-methylpyridin-3-yl)-1H-pyrrolo[2,3-b]pyridine-3-carbonyl)-2,6-difluorophenyl)propane-1-sulfonamide]: the IC50 in assay [1] was less than 100 nM. Further, in assay [2], the “Selectivity Braf” value is recorded as “+++ (IC50(off-target)/IC50(MKK4) > 100)”. The “Selectivity JNK1” value in assay [3] is “+++ (IC50(off-target)/IC50(MKK4) > 100)”. Besides, the “Selectivity IVIKK7” value in assay [4] is “+++ (IC50(off-target)/IC50(MKK4) > 100)”.

Regarding `CCCS(=O)(=O)Nc1c(F)ccc(C(=O)c2c[nH]c3ncc(-c4ccccc4C)cc23)c1F` [Example 215, N-(2,6-difluoro-3-(5-(o-tolyl)-1H-pyrrolo[2,3-b]pyridine-3-carbonyl)phenyl)propane-1-sulfonamide], the IC50 in assay [1] lay within 100 to 1000 nM. The “Selectivity Braf” value in assay [2] is listed as “◯ (3 ≥ IC50(off-target)/IC50(MKK4))”. In assay [3], the “Selectivity JNK1” value is reported as “+ (10 ≥ IC50(off-target)/IC50(MKK4) > 3)”. Also, in assay [4], the “Selectivity IVIKK7” value is recorded as “+++ (IC50(off-target)/IC50(MKK4) > 100)”.

Take `CCCS(=O)(=O)Nc1ccc(F)c(C(=O)c2c[nH]c3ncc(N4CC(C)OC(C)C4)cc23)c1F` (stereo not drawn) [Example 138, N-(3-(5-(2,6-dimethyl-morpholino)-1H-pyrrolo[2,3-b]pyridine-3-carbonyl)-2,4-difluorophenyl)propane-1-sulfonamide]: the half-maximal inhibitory concentration (IC50) in assay [1] fell in the range of 1000 to 10000 nM. Moreover, in assay [2], the “Selectivity Braf” value is reported as “◯ (3 ≥ IC50(off-target)/IC50(MKK4))”. Besides, in assay [3], the “Selectivity JNK1” value is “◯ (3 ≥ IC50(off-target)/IC50(MKK4))”. Also, the “Selectivity IVIKK7” value in assay [4] was “++ (100 ≥ IC50(off-target)/IC50(MKK4) > 10)”.

On to `CCCS(=O)(=O)Nc1c(F)ccc(C(=O)c2c[nH]c3ncc(-c4ccccc4Cl)cc23)c1F` [Example 213, N-(3-(5-(2-chlorophenyl)-1H-pyrrolo[2,3-b]pyridine-3-carbonyl)-2,6-difluorophenyl)propane-1-sulfonamide], for which the half-maximal inhibitory concentration (IC50) in assay [1] was less than 100 nM. For the same compound, the “Selectivity Braf” value in assay [2] is reported as “+++ (IC50(off-target)/IC50(MKK4) > 100)”. Further, in assay [3], the “Selectivity JNK1” value is given as “++ (100 ≥ IC50(off-target)/IC50(MKK4) > 10)”. Besides, in assay [4], the “Selectivity IVIKK7” value is listed as “+++ (IC50(off-target)/IC50(MKK4) > 100)”.

Regarding `CCCS(=O)(=O)Nc1c(F)ccc(C(=O)c2c[nH]c3ncc(-c4ccc(O)cc4Cl)cc23)c1F` [Example 152, N-(3-(5-(2-chloro-4-hydroxyphenyl)-1H-pyrrolo[2,3-b]pyridine-3-carbonyl)-2,6-difluorophenyl)propane-1-sulfonamide], the half-inhibitory concentration (IC50) in assay [1] is less than 100 nM. The “Selectivity Braf” value in assay [2] was “+++ (IC50(off-target)/IC50(MKK4) > 100)”. Besides, the “Selectivity JNK1” value in assay [3] was “++ (100 ≥ IC50(off-target)/IC50(MKK4) > 10)”. Moreover, the “Selectivity IVIKK7” value in assay [4] is recorded as “+++ (IC50(off-target)/IC50(MKK4) > 100)”.

In the case of `CCCS(=O)(=O)Nc1c(F)ccc(C(=O)c2c[nH]c3ncc(-c4cnc(Cl)nc4)cc23)c1F` [Example 237, N-(3-(5-(2-chloropyrimidin-5-yl)-1H-pyrrolo[2,3-b]pyridine-3-carbonyl)-2,6-difluorophenyl)propane-1-sulfonamide], the “Potency MKK4 (IC50)” value in assay [1] is recorded as “+++·”. Besides, the “Selectivity Braf” value in assay [2] is “+++ (IC50(off-target)/IC50(MKK4) > 100)”. Besides, in assay [3], the “Selectivity JNK1” value was “+++ (IC50(off-target)/IC50(MKK4) > 100)”. The “Selectivity IVIKK7” value in assay [4] is listed as “+++ (IC50(off-target)/IC50(MKK4) > 100)”.
